According to ChEMBL document CHEMBL4622892, “New class of alkynyl glycoside analogues as tyrosinase inhibitors” (Bioorg Med Chem Lett, 2020):
Calls of active or inactive are those of the source. The rule behind the calls is not given here.

What was measured:
Mushroom tyrosinase [1] = target: T1, Mushroom tyrosinase (Agaricus bisporus, UniProt O42713+Q00024+C7FF04+C7FF05)
Description: Inhibition of mushroom tyrosinase using L-DOPA as substrate

Mushroom tyrosinase [2] = target: T1, Mushroom tyrosinase; remark: listed apart in the source
Description: Inhibition of mushroom tyrosinase using L-tyrosine as substrate

Mushroom tyrosinase [3] = target: T1, Mushroom tyrosinase; test: Non-competitive inhibition of mushroom tyrosinase using L-tyrosine as substrate by Lineweaver-Burk blot analysis
[4] = target: T2, Mushroom tyrosinase (Agaricus bisporus) (UniProt O42713+Q00024+C7FF04+C7FF05); test: Reversible inhibition of mushroom tyrosinase using L-tyrosine as substrate by Lineweaver-Burk plot analysis
[5] = target: T2, Mushroom tyrosinase (Agaricus bisporus); test: […] inhibition of mushroom tyrosinase using L-tyrosine as substrate by Lineweaver-Burk blot analysis
[6] = target: T2, Mushroom tyrosinase (Agaricus bisporus); test: Reversible inhibition of mushroom tyrosinase using L-DOPA as substrate by Lineweaver-Burk plot analysis
Mushroom tyrosinase [7] = target: T1, Mushroom tyrosinase; test: Non-competitive inhibition of mushroom tyrosinase using L-DOPA as substrate by Lineweaver-Burk blot analysis

| SMILES | IC50 (Mushroom tyrosinase [1]) [µM] | IC50 (Mushroom tyrosinase [2]) [µM] | further results |
| --- | --- | --- | --- |
| CC#CCOC[C@H]1OC(OCC#CC)[C@H](OCc2ccccc2)[C@@H](OCc2ccccc2)[C@@H]1OCc1ccccc1 (some centres undefined) | > 500 | 72 | Ki (Mushroom tyrosinase [3]): 32 µM; inhibition [4]: Active |
| CC#CCOC[C@H]1OC(OCc2ccccc2)[C@H](OCc2ccccc2)[C@@H](OCc2ccccc2)[C@@H]1OCc1ccccc1 (some centres undefined) | > 500 | > 500 |  |
| CC#CCOC1O[C@@H]2CO[C@@H](c3ccccc3)O[C@H]2[C@H](O)[C@H]1O (some centres undefined) | > 500 | > 500 |  |
| CC#CCO[C@H]1O[C@@H]2CO[C@@H](c3ccccc3)O[C@H]2[C@H](OCc2ccccc2)[C@H]1OCc1ccccc1 | > 500 | > 500 |  |
| C#CCO[C@@H]1O[C@@H]2CO[C@@H](c3ccccc3)O[C@H]2[C@H](OCc2ccccc2)[C@H]1OCc1ccccc1 | > 500 | > 500 |  |
| C#CCOC1O[C@@H]2CO[C@@H](c3ccccc3)O[C@H]2[C@H](O)[C@H]1O (some centres undefined) | > 500 | > 500 |  |
| C#CCCCOC1O[C@H](COC(C)=O)[C@@H](OCc2ccccc2)[C@H](OCc2ccccc2)[C@H]1OCc1ccccc1 (some centres undefined) | > 500 | 208 |  |
| C#CCO[C@H]1O[C@H](COCc2ccccc2)[C@@H](OCc2ccccc2)[C@H](OCc2ccccc2)[C@H]1OCc1ccccc1 | > 500 | > 500 |  |
| C#CCCO[C@@H]1O[C@@H]2CO[C@@H](c3ccccc3)O[C@H]2[C@H](OCc2ccccc2)[C@H]1OCc1ccccc1 | > 500 | > 500 |  |
| C#CCCOC1O[C@H](COC(C)=O)[C@@H](OCc2ccccc2)[C@H](OCc2ccccc2)[C@H]1OCc1ccccc1 (some centres undefined) | > 500 | 268 |  |
| C#CCOC[C@H]1OC(OCC#C)[C@H](OCc2ccccc2)[C@@H](OCc2ccccc2)[C@@H]1OCc1ccccc1 (some centres undefined) | > 500 | > 500 |  |
| CC#CCO[C@@H]1O[C@H](COCc2ccccc2)[C@@H](OCc2ccccc2)[C@H](OCc2ccccc2)[C@H]1OCc1ccccc1 | > 500 | 179 |  |
| CC#CCO[C@@H]1O[C@@H]2CO[C@@H](c3ccccc3)O[C@H]2[C@H](OCc2ccccc2)[C@H]1OCc1ccccc1 | > 500 | > 500 |  |
| C#CCCCOC1O[C@H](COCc2ccccc2)[C@@H](OCc2ccccc2)[C@H](OCc2ccccc2)[C@H]1OCc1ccccc1 (some centres undefined) | > 500 | 105 |  |
| CC#CCO[C@H]1O[C@H](COCc2ccccc2)[C@@H](OCc2ccccc2)[C@H](OCc2ccccc2)[C@H]1OCc1ccccc1 | > 500 | 321 |  |
| CO[C@H]1O[C@H](COC(C)=O)[C@@H](OCc2ccccc2)[C@H](OCc2ccccc2)[C@H]1OCc1ccccc1 | > 500 | > 500 |  |

| SMILES | IC50 (Mushroom tyrosinase [1]) [µM] | IC50 (Mushroom tyrosinase [2]) [µM] | further results |
| --- | --- | --- | --- |
| C#CCO[C@@H]1O[C@H](COCc2ccccc2)[C@@H](OCc2ccccc2)[C@H](OCc2ccccc2)[C@H]1OCc1ccccc1 | > 500 | 94.7 |  |
| C#CCCOC1O[C@H](COC)[C@@H](OCc2ccccc2)[C@H](OCc2ccccc2)[C@H]1OCc1ccccc1 (some centres undefined) | > 500 | > 500 |  |
| C#CCOC1O[C@H](COCC#CC)[C@@H](OCc2ccccc2)[C@H](OCc2ccccc2)[C@H]1OCc1ccccc1 (some centres undefined) | > 500 | > 500 |  |
| C#CCCOC1O[C@@H]2CO[C@@H](c3ccccc3)O[C@H]2[C@H](O)[C@H]1O (some centres undefined) | 207 | 463 |  |
| C#CCOC1O[C@H](COC(C)=O)[C@@H](OCc2ccccc2)[C@H](OCc2ccccc2)[C@H]1OCc1ccccc1 (some centres undefined) | > 500 | 461 |  |
| C#CCCO[C@H]1O[C@@H]2CO[C@@H](c3ccccc3)O[C@H]2[C@H](OCc2ccccc2)[C@H]1OCc1ccccc1 | > 500 | > 500 |  |
| COC[C@H]1O[C@H](OC)[C@H](OCc2ccccc2)[C@@H](OCc2ccccc2)[C@@H]1OCc1ccccc1 | 494 | > 500 |  |
| C#CCCOC1O[C@H](CO)[C@@H](OCc2ccccc2)[C@H](OCc2ccccc2)[C@H]1OCc1ccccc1 (some centres undefined) | > 500 | > 500 |  |
| COC[C@H]1OC(OCc2ccccc2)[C@H](OCc2ccccc2)[C@@H](OCc2ccccc2)[C@@H]1OCc1ccccc1 (some centres undefined) | 435 | > 500 |  |
| C#CCOC1O[C@H](COC)[C@@H](OCc2ccccc2)[C@H](OCc2ccccc2)[C@H]1OCc1ccccc1 (some centres undefined) | > 500 | > 500 |  |
| CC#CCOC1O[C@@H]2CO[C@@H](c3ccccc3)O[C@H]2[C@H](OCc2ccccc2)[C@H]1OCc1ccccc1 (some centres undefined) | > 500 | > 500 |  |
| C#CCOC1O[C@H](CO)[C@@H](OCc2ccccc2)[C@H](OCc2ccccc2)[C@H]1OCc1ccccc1 (some centres undefined) | > 500 | > 500 |  |
| C#CCOC[C@H]1OC(OCC#CC)[C@H](OCc2ccccc2)[C@@H](OCc2ccccc2)[C@@H]1OCc1ccccc1 (some centres undefined) | 288 | > 500 |  |
| OC[C@H]1OC(OCc2ccccc2)[C@H](OCc2ccccc2)[C@@H](OCc2ccccc2)[C@@H]1OCc1ccccc1 (some centres undefined) | > 500 | > 500 |  |
| C#CCCCOC1O[C@H](COC)[C@@H](OCc2ccccc2)[C@H](OCc2ccccc2)[C@H]1OCc1ccccc1 (some centres undefined) | > 500 | > 500 |  |
| c1ccc(COC[C@H]2OC(OCc3ccccc3)[C@H](OCc3ccccc3)[C@@H](OCc3ccccc3)[C@@H]2OCc2ccccc2)cc1 (some centres undefined) | > 500 | > 500 |  |

Further lines, with some results ahead:

| IC50 (Mushroom tyrosinase [1]) [µM] | IC50 (Mushroom tyrosinase [2]) [µM] | SMILES | further results |
| --- | --- | --- | --- |
| 357 | 273 | CC(=O)OC[C@H]1OC(OCc2ccccc2)[C@H](OCc2ccccc2)[C@@H](OCc2ccccc2)[C@@H]1OCc1ccccc1 (some centres undefined) |  |
| 70.7 | 54 | CC#CCOC1O[C@H](COCc2ccccc2)[C@@H](OCc2ccccc2)[C@H](OCc2ccccc2)[C@H]1OCc1ccccc1 (some centres undefined) | inhibition [5]: Active; Ki (Mushroom tyrosinase [3]): 21 µM |
| 431 | > 500 | C#CCO[C@H]1O[C@@H]2CO[C@@H](c3ccccc3)O[C@H]2[C@H](OCc2ccccc2)[C@H]1OCc1ccccc1 |  |
| > 500 | 205 | C#CCOC[C@H]1OC(OCc2ccccc2)[C@H](OCc2ccccc2)[C@@H](OCc2ccccc2)[C@@H]1OCc1ccccc1 (some centres undefined) |  |
| 257 | > 500 | C#CCCOC1O[C@@H]2CO[C@@H](c3ccccc3)O[C@H]2[C@H](OCc2ccccc2)[C@H]1OCc1ccccc1 (some centres undefined) |  |
| 80.4 | > 500 | CC#CCOC1O[C@H](CO)[C@@H](OCc2ccccc2)[C@H](OCc2ccccc2)[C@H]1OCc1ccccc1 (some centres undefined) |  |
| > 500 | 274 | CC#CCOC[C@H]1OC(OC)[C@H](OCc2ccccc2)[C@@H](OCc2ccccc2)[C@@H]1OCc1ccccc1 (some centres undefined) |  |
| > 500 | > 500 | C#CCCCOC1O[C@H](CO)[C@@H](OCc2ccccc2)[C@H](OCc2ccccc2)[C@H]1OCc1ccccc1 (some centres undefined) |  |
| 34.3 | 150 | C#CCCOC1O[C@H](COCc2ccccc2)[C@@H](OCc2ccccc2)[C@H](OCc2ccccc2)[C@H]1OCc1ccccc1 (some centres undefined) | inhibition [6]: Active; Ki (Mushroom tyrosinase [7]): 49 µM |
| 45.4 | 73.6 | CC#CCOC1O[C@H](COC)[C@@H](OCc2ccccc2)[C@H](OCc2ccccc2)[C@H]1OCc1ccccc1 (some centres undefined) | inhibition [6]: Active; Ki (Mushroom tyrosinase [7]): 52 µM |
| 383 | > 500 | C#CCOC1O[C@@H]2CO[C@@H](c3ccccc3)O[C@H]2[C@H](OCc2ccccc2)[C@H]1OCc1ccccc1 (some centres undefined) |  |
| 400 | 219 | CC#CCOC1O[C@H](COC(C)=O)[C@@H](OCc2ccccc2)[C@H](OCc2ccccc2)[C@H]1OCc1ccccc1 (some centres undefined) |  |
| > 500 | 81.9 | C#CCOC1O[C@H](COCc2ccccc2)[C@@H](OCc2ccccc2)[C@H](OCc2ccccc2)[C@H]1OCc1ccccc1 (some centres undefined) |  |
| > 500 | 191 | CO[C@H]1O[C@H](COCc2ccccc2)[C@@H](OCc2ccccc2)[C@H](OCc2ccccc2)[C@H]1OCc1ccccc1 |  |
| > 500 | > 500 | C#CCOC[C@H]1O[C@H](OC)[C@H](OCc2ccccc2)[C@@H](OCc2ccccc2)[C@@H]1OCc1ccccc1 |  |
| > 500 | > 500 | CO[C@H]1O[C@H](CO)[C@@H](OCc2ccccc2)[C@H](OCc2ccccc2)[C@H]1OCc1ccccc1 |  |
